From ChEMBL document CHEMBL1151292, “Antineoplastic activity and cytotoxicity of flavones, isoflavones, and flavanones” (1979)
Converted amounts (≈) assume the structure as drawn. The source made the active and inactive calls. The rule behind the calls is not given here.

These compounds were tested on L1210 (assay: In vivo antitumor activity against mouse L1210 cells). Settings: not given.
Assay type: functional, organism-based
With `COc1cc(-c2cc(=O)c3c(O)cc(C)cc3o2)cc(OC)c1OC` the Activity was “inactive”.
`CC(=O)Oc1cc(OC(C)=O)c2c(=O)c(OC(C)=O)c(-c3ccc(OC(C)=O)c(OC(C)=O)c3)oc2c1` was tested, and the Activity was “inactive”.
`CC(=O)c1c(O)cc(O)cc1-c1cc(=O)c2c(O)ccc(C(C)=O)c2o1` was tested, and the Activity was “inactive”.
With `COC1(c2ccccc2)Oc2ccccc2C(=O)C1(O)C[N+](=O)[O-]` (stereo not given) the Activity was “inactive”.
With `CC(=O)Oc1ccc2c(=O)c(-c3ccccc3)c(C)oc2c1` the Activity was “inactive”.
`COc1ccc(-c2cc(=O)c3c(O)cccc3o2)cc1` was tested, and the Activity was “inactive”.
`COc1cc(-c2cc(=O)c3ccc(O)c([C@@H]4O[C@H](CO)[C@@H](O)[C@H](O)[C@H]4O)c3o2)ccc1O` was tested, and the Activity was “inactive”.
With `COc1cc(-c2cc(=O)c3ccc(O)cc3o2)cc(OC)c1OC` the Activity was “inactive”.
`COc1cc(OC)c2c(=O)c(O)c(-c3ccc(OC)c(OC)c3)oc2c1` was tested, and the Activity was “inactive”.
`COc1ccc(-c2cc(=O)c3c(O)cc(O)cc3o2)cc1OC` was tested, and the Activity was “inactive”.
`COc1ccc(-c2coc3cc(O)cc(O)c3c2=O)cc1` was tested, and the Activity was “inactive”.
`COc1cc(-c2cc(=O)c3c(C)cc(O)cc3o2)cc(OC)c1OC` was tested, and the Activity was “inactive”.
`Cc1ccc(-c2oc3ccccc3c(=O)c2O)cc1` was tested, and the Activity was “inactive”.
`COc1ccc(-c2cc(=O)c3ccc(O)cc3o2)cc1` was tested, and the Activity was “inactive”.
For `COc1ccc(-c2coc3cc(O)ccc3c2=O)cc1`, the Activity was “inactive”.
In the case of `O=c1cc(-c2ccc3c(c2)OCO3)oc2ccccc12`, the Activity is reported as “inactive”.
`O=C1C(=O)C(c2ccccc2)Oc2ccccc21` (stereo not given) was tested, and the Activity was “inactive”.
With `COc1ccc(-c2cc(=O)c3c(O)cc(C)cc3o2)cc1OC` the Activity was “inactive”.
`COc1ccc(-c2oc3ccccc3c(=O)c2O)cc1` was tested, and the Activity was “inactive”.
`COc1ccc(-c2cc(=O)c3c(C)cc(O)cc3o2)cc1` was tested, and the Activity was “inactive”.
`COc1cc(OC)c(-c2cc(=O)c3c(O)cc(O)cc3o2)c(OC)c1` was tested, and the Activity was “inactive”.
`COc1ccc(-c2oc3cc(CC=C(C)C)cc(O)c3c(=O)c2OC)cc1OC` was tested, and the Activity was “inactive”.
For `COC1(O)C(=O)c2ccccc2OC1(OC)c1ccc(Cl)cc1` (stereo not given), the Activity was “inactive”.
With `O=c1cc(-c2ccccc2)oc2c(O)c(O)cc(O)c12` the Activity was “inactive”.
For `COc1ccc2c(c1)OC(OC)(c1ccc(OC)c(OC)c1)C(O)(OC)C2=O` (stereo not given), the Activity was “inactive”.
For `COc1ccc(C2(OC)Oc3ccccc3C(=O)C2(O)OC)cc1OC` (stereo not given), the Activity was “inactive”.
In the case of `COc1ccc2c(=O)c(O)c(-c3ccc(OC)c(OC)c3)oc2c1`, the Activity is reported as “inactive”.
`C[C@@H]1O[C@@H](OC[C@H]2O[C@@H](Oc3ccc4c(=O)c(-c5ccc6c(c5)OCO6)coc4c3)[C@H](O)[C@@H](O)[C@@H]2O)[C@H](O)[C@@H](O)[C@H]1O` was tested, and the Activity was “inactive”.
In the case of `COc1ccc(-c2cc(=O)c3c(C)cc(O)cc3o2)cc1OC`, the Activity is reported as “inactive”.
For `C[C@@H]1O[C@@H](OC[C@H]2O[C@@H](Oc3c(-c4ccc(O)c(O)c4)oc4c(O)cc(O)cc4c3=O)[C@H](O)[C@@H](O)[C@@H]2O)[C@H](O)[C@H](O)[C@H]1O`, the Activity was “inactive”.
`COc1ccc(-c2cc(=O)c3ccc(O)cc3o2)cc1OC` was tested, and the Activity was “inactive”.
With `COc1cc2oc(-c3ccc(O)cc3)c(O[C@@H]3O[C@@H](C)[C@H](O)[C@@H](O)[C@H]3O)c(=O)c2c(O)c1OC` the Activity was “inactive”.
With `COc1cc(O)c2c(=O)c(OC)c(-c3ccc(O)c(OC)c3)oc2c1` the Activity was “inactive”.
With `COc1ccc(-c2oc3cc(O)cc(O)c3c(=O)c2OC)cc1OC` the Activity was “inactive”.
For `COc1ccc(-c2oc3ccccc3c(=O)c2O)cc1OC`, the Activity was “inactive”.
With `COc1cc(C2Oc3cc(OC)c(OC)c(O)c3C(=O)C2OC)ccc1O` (stereo not given) the Activity was “inactive”.
With `O=c1c(-c2ccccc2)coc2ccccc12` the Activity was “inactive”.
For `COc1cc(-c2cc(=O)c3c(O)cc(O)cc3o2)cc(OC)c1OC`, the Activity was “inactive”.

These compounds were tested on KB (assay: Cytotoxicity against human KB cells). Settings: read-out: ED50 (the source's name).
Assay type: functional
`COc1cc2c(=O)cc(-c3ccc(O)c(O)c3)oc2cc1O` gave an EC50 of 18 µg/mL (≈ 59.9 µM).
`COc1ccc2c(c1)OC(OC)(c1ccccc1)C(O)(O)C2=O` (stereo not given) was tested, and the EC50 was 20 µg/mL (≈ 63.2 µM).
